Values of other authors in patent publication US11786526B2, “Pharmaceutical composition comprising rosuvastatin and ezetimibe and a preparation method thereof” (SANOFI, priority 2016, dated 2023).

Columns and labels:
[1] = not given; remark: listed apart in the source

Solubility in water | Stability in an acidic environment [1] | SMILES
almost insoluble in water | – | O=C1[C@H](CC[C@H](O)c2ccc(F)cc2)[C@@H](c2ccc(O)cc2)N1c1ccc(F)cc1 [Ezetimibe, (3R,4S)-1-(4-fluorophenyl)-3-[(3S)-3-(4-fluorophenyl)-3-hydroxypropyl]-4-(4-hydroxyphenyl)azetidin-2-one]
– | unstable in an acidic environment | CC(C)c1nc(N(C)S(C)(=O)=O)nc(-c2ccc(F)cc2)c1/C=C/[C@@H](O)C[C@@H](O)CC(=O)O [rosuvastatin, (3R,5S,6E)-7-[4-(4-fluorophenyl)-2-(N-methylmethanesulfonamido)-6-(propan-2-yl)pyrimidin-5-yl]-3,5-dihydroxyhept-6-enoic acid]
